Which melting point does the source give for `C=CC(=O)NC(C)(C)c1ccc(CC(=O)OCCC)cc1` here?
Its melting point is 71 to 72 °C.

With `O=C1C=C(OCc2ccccc2)CN1` as the compound, how does the melting point read?
The melting point was 147 to 148 °C.

Which melting point does the source give for `Cc1cc2c(cc1-n1cccc1)OC(=O)C2C` (stereo not drawn) here?
Its melting point is 61 to 63 °C.

With `Cn1c(=O)[nH]c2cnc(-c3ccccc3)nc21` as the compound, how does the melting point read?
Its melting point is 286 to 289 °C.

For `CC(C)(C)OC(=O)NC1Cc2ccccc2CC1=O` (single isomer, unassigned; (+)), which melting point is on record?
Its melting point is 76 °C.

Which melting point does the source give for `CCCCOCCOc1ccc(-c2ccc3c(c2)C=C(C(=O)O)CCN3c2ccc(S(N)(=O)=O)cc2)cc1` here?
The melting point was 185 to 195 °C.

For `CON1C(C)(C)CC(OC(=O)c2ccc3nn(-c4cc(C(C)(C)CC(C)(C)C)cc(C(C)(C)c5ccccc5)c4O)nc3c2)CC1(C)C`, which melting point is on record?
The melting point was 84 to 90 °C.

For `N#CC(c1ccc(Cl)c(Cl)c1)c1c(Cl)cc(NN)cc1Cl` (stereo not drawn), which melting point is on record?
The melting point was 183 to 185 °C.

For `CCN(CC)S(=O)(=O)c1ccc2c(c1)-c1c(nc(C)[nH]c1=O)CC2`, which melting point is on record?
Its melting point is 249 to 251 °C.

Which melting point does the source give for `CS(=O)(=O)c1ccc(-n2nc(C(F)(F)F)cc2-c2ccc(-c3cocn3)cc2)cc1` here?
Its melting point is 175 to 177 °C.

For `C(=C\c1cc(/C=C/c2c[nH]c3ccccc23)n[nH]1)/c1ccc(OCc2ccccn2)cc1`, which melting point is on record?
The melting point was 196 to 199 °C.

Which melting point does the source give for `CCCCCS(=O)(=O)NCC(C)Cc1ccc(OCCOC)cc1Oc1ncc(C(F)(F)F)cc1Cl` (stereo not drawn) here?
Its melting point is 80 to 82 °C.

Which melting point does the source give for `COc1ccn(-c2nc(C)c(C(=O)NCc3ccc(F)c(F)c3)s2)c(=O)c1` here?
Its melting point is 183 to 185 °C.

For `Cc1c(S(=O)(=O)c2ccc(=O)[nH]n2)oc2cccc(Cl)c12`, which melting point is on record?
The melting point was 232 to 233 °C.

Which melting point does the source give for `CCc1ccc(Cc2c(OCc3ccccc3)n[nH]c2C)cc1` here?
Its melting point is 80 to 83 °C.

With `C=CCn1c(=O)c2c(nc(/C=C/c3cc(OC)c(OC)c(OC)c3)n2C)n(CC=C)c1=O` as the compound, how does the melting point read?
The melting point was 189 to 191 °C.

For `CCCN(CCC)C1Cc2cc3c(cc2C1)C(=O)N(Cc1ccc(S(N)(=O)=O)cc1)C3=O`, which melting point is on record?
Its melting point is 190 to 194 °C.

For `N#Cc1[nH]c(Br)c([N+](=O)[O-])c1Br`, which melting point is on record?
Its melting point is 170 to 175 °C.

With `O=C(C=Cc1cccc(S(=O)(=O)NCc2cccc3ccccc23)c1)NO` as the compound, how does the melting point read?
Its melting point is 177 °C.

For `COc1ccc(C=C(c2ccc(OC)cc2)N(C)C)cc1`, which melting point is on record?
The melting point was 67 to 69 °C.

With `CCOC(=O)c1ccc2c(c1)sc1ccc(C)cc12` as the compound, how does the melting point read?
Its melting point is 83 to 87 °C.

With `O=C(O)C=C[C@H](Cc1ccc(-c2ccccc2)cc1)NCP(=O)(O)O` as the compound, how does the melting point read?
Its melting point is 231 to 233 °C.

With `O=C(O)Cc1n[nH]c2c(=O)[nH]c3cc(Cl)ccc3c(=O)c12` as the compound, how does the melting point read?
The melting point was 297 to 300 °C.

For `N#CC=C1CC2(CCCC2)c2ccccc21`, which melting point is on record?
Its melting point is 82 °C.

With `COC1(OC)C=CC=CC1C1c2cccc(O)c2C(=O)c2c(O)cccc21` (stereo not drawn) as the compound, how does the melting point read?
Its melting point is 152 °C.

Which melting point does the source give for `O=Cc1cc(-c2ccc(F)cc2F)ccc1OC(F)(F)F` here?
The melting point was 39 to 41 °C.

With `N#Cc1ccc(O)c(C2(C(=O)O)CCCC2)c1` as the compound, how does the melting point read?
Its melting point is 153 to 154 °C.

Which melting point does the source give for `CC1(C)CC2(CC(C)(C)N1O)OC1(CCCCCCCCCCC1)NC2=O` here?
Its melting point is 236 to 238 °C.

For `c1cc2c(c3c1CCN3)OCCO2`, which melting point is on record?
Its melting point is 130 to 132 °C.

With `COc1ccc(Nc2cccc3c2C(=O)N(C2CCC(=O)NC2=O)C3=O)cc1` (stereo not drawn) as the compound, how does the melting point read?
Its melting point is 228 to 230 °C.

For `CCOC(=O)c1snc(-c2ccccc2)c1C(=O)OCC`, which melting point is on record?
The melting point was 70 to 71.5 °C.

For `COC(=O)CNC(=O)Nc1cc(F)ccc1[N+](=O)[O-]`, which melting point is on record?
The melting point was 133 to 135 °C.

Which melting point does the source give for `CCCc1c(OCC(O)CSc2ccc(CC(=O)O)c(Cl)c2Cl)ccc(C(C)=O)c1O` (stereo not drawn) here?
The melting point was 151 to 153 °C.

With `O=C(NCCCC(F)(F)F)C(c1ccccc1)c1ccccc1` as the compound, how does the melting point read?
Its melting point is 166 °C.

Which melting point does the source give for `Cc1ccnc(SCc2nccc(SCCCSc3ccc4ncc([N+](=O)[O-])n4n3)c2C)n1` here?
Its melting point is 136 to 138 °C.

Which melting point does the source give for `CN1CCN(C2=C3CSCC34CC(=CC#N)C=CC4=NC=C2)CC1` (stereo not drawn) here?
Its melting point is 90 to 92 °C.

With `COc1ccc2c(c1)c1c(n2Cc2ccccc2)CCCC1C(=O)N1CCN(c2ccccc2)CC1` (stereo not drawn) as the compound, how does the melting point read?
Its melting point is 142 to 143 °C.

With `CC(C)(C)c1cc(CCc2ccccc2NC(=O)NCC(C)(C)c2ccccc2F)cc(C(C)(C)C)c1O` as the compound, how does the melting point read?
Its melting point is 182 to 183 °C.

For `O=C(c1ccccc1)c1ccc(-c2cnn3c(O)ncnc23)cc1`, which melting point is on record?
Its melting point is greater than 300 °C.

With `CNC(=O)Nc1cccc(C(=S)NC(C)C)c1` as the compound, how does the melting point read?
The melting point was 175 to 178 °C.

With `CCN(CC)CCNC(=O)c1ccc(S(N)(=O)=O)cc1` as the compound, how does the melting point read?
Its melting point is 174 to 176 °C.

Which melting point does the source give for `N#Cc1nc(Cl)nc(N2CCS(=O)CC2)c1Cl` here?
Its melting point is 145 to 147 °C.

With `CCOC(=O)c1ccc(OCC(=O)O)cc1` as the compound, how does the melting point read?
Its melting point is 129 to 130 °C.

For `COc1cc2c(cc1O)CC(C)N(Cc1cc(OC)c(OC)c(OC)c1)C2` (stereo not drawn), which melting point is on record?
The melting point was 127 to 132 °C.

With `COc1ccc(CNc2ncc3c(n2)N(c2ccccc2)C(=O)N(c2c(Cl)cccc2Cl)C3)cc1` as the compound, how does the melting point read?
Its melting point is 56 °C.

For `CC(=O)C(=CN(C)C)C(=O)c1ccccc1`, which melting point is on record?
The melting point was 81 to 83 °C.

For `CCC(=NNC(=O)C1CC1C)c1cccnc1` (stereo not drawn), which melting point is on record?
The melting point was 137 °C.

With `CN1CCCC1=Nc1ncnc2c1ncn2[C@H]1C=C[C@@H](O)C1` (racemic) as the compound, how does the melting point read?
Its melting point is 135 to 138 °C.

With `COC(=O)C(NS(=O)(=O)c1ccc(-c2ccc(NC(=O)c3cc4c(OC(C)C)cccc4o3)cc2)cc1)C(C)C` (stereo not drawn) as the compound, how does the melting point read?
The melting point was 226 to 229 °C.

Which melting point does the source give for `CS(=O)(=O)N1CCS(=O)c2cccc(Cl)c2C1` (stereo not drawn) here?
Its melting point is 167 to 169 °C.

For `NC(=O)N(O)CCNC(=O)c1ccc(Cl)cc1`, which melting point is on record?
The melting point was 172 to 173 °C.

Which melting point does the source give for `COc1cc(Nc2c(C#N)cnc3cc(/C=C/C(=O)O)ccc23)c(Cl)cc1Cl` here?
Its melting point is 237 to 240 °C.

Which melting point does the source give for `CCS(=O)(=O)Nc1cc(C(=O)Nc2ccccc2)ccc1OC` here?
The melting point was 175 to 177 °C.

With `CCOC(=O)Cc1c(C)n(Cc2cccc(O)c2)c2ccc(OC)cc12` as the compound, how does the melting point read?
The melting point was 114 to 116 °C.

With `Cc1nc2c(O)c(CCC(=O)c3cccs3)c(C(=O)N(C)C)cc2n1C` as the compound, how does the melting point read?
The melting point was 233 to 235 °C.

For `O=C1C2CCCCC2C(=O)N1CCS` (stereo not drawn), which melting point is on record?
The melting point was 79 to 80 °C.

With `Cc1c(C#N)sc2nc(-c3ccccc3)nc(N3CCNCC3)c12` as the compound, how does the melting point read?
The melting point was 251 to 253 °C.

For `Clc1ccc2[nH]nc(N3CCNCC3)c2c1`, which melting point is on record?
Its melting point is 60 to 62 °C.

Which melting point does the source give for `O=C(C=Cc1ccc(N2CCCC2)cc1)c1ccc2c(c1)CCCC2` here?
Its melting point is 167 to 169 °C.

With `CC(=O)NC(C(=O)O)C(c1ccc(F)cc1)c1ccc(F)cc1` (stereo not drawn) as the compound, how does the melting point read?
Its melting point is 187 °C.

Which melting point does the source give for `O=c1[nH]c2cc([N+](=O)[O-])c3c(c2[nH]c1=O)CN(C(=S)Nc1ccccc1)CC3` here?
Its melting point is 270 to 274 °C.

With `CCCCNC1CC(C)(C)N(c2nc(N3CCOCC3)nc(N3CCOCC3)n2)C(C)(C)C1` as the compound, how does the melting point read?
Its melting point is 82 to 87 °C.

With `CCOC(=O)CCSc1nnsc1-c1ccc(F)cc1` as the compound, how does the melting point read?
The melting point was 76.5 to 77.5 °C.

With `COc1ccc(-c2noc(C(F)F)c2-c2ccc(S(N)(=O)=O)cc2)cc1` as the compound, how does the melting point read?
The melting point was 182 to 183 °C.

Which melting point does the source give for `c1csc(C2NCCc3ccccc32)c1` (stereo not drawn) here?
Its melting point is 114 to 116 °C.

With `O=C(Nc1ccc2[nH]c(=O)sc2c1)C(=O)N1CCC(Cc2ccccc2)CC1` as the compound, how does the melting point read?
The melting point was 201 to 203 °C.

For `N#CCON=C(CCN1CCN(c2ccccn2)CC1)c1ccccc1`, which melting point is on record?
The melting point was 127 to 128 °C.

For `O=C(O)CCc1c(C(=O)O)[nH]c2cc(Br)cc(Br)c12`, which melting point is on record?
Its melting point is 259 °C.

Which melting point does the source give for `COc1ccc(C(=O)Nc2ccc3ccc(C)nc3n2)cc1` here?
The melting point was 119 °C.

For `O=C(O)COc1ccc2c(=O)c3cc(Cl)ccc3oc2c1Cl`, which melting point is on record?
The melting point was 262 to 263 °C.

Which melting point does the source give for `COc1ccc2c(Nc3cccc(CCO)c3)c3ccccc3nc2c1` here?
The melting point was 186 to 188 °C.

With `COc1ccccc1CNc1ccc2cc(Nc3nc4cc(C)ccc4o3)ccc2n1` as the compound, how does the melting point read?
The melting point was 220 °C.

Which melting point does the source give for `O=P(O)(O)C1(P(=O)(O)O)CCCCCN1` here?
Its melting point is 275 °C.

From a melting point compilation (Tetko et al.; mined from patent text by program, amines drawn as free bases though some values may be those of a salt)
